Measurements from patent publication US4332820A, “Substituted benzonitriles having antiviral activity” (The Dow Chemical Company, priority 1980, dated 1982).
≈ marks a conversion by molar mass, not a printed value.

Columns and labels:
[1] = system: rhinovirus type 1A (RV-1A); experiment: Tissue culture antiviral testing, RV-1A (cytopathic effect, HeLa cells); format: cell-based; conditions: for EC50: Enterovirus, HeLa cells, NA = not active at the standard test conditions, read-out: Lowest concentration of the compound necessary to cause a 50 percent reduction in cytopathic effect
[2] = system: rhinovirus type 2 (RV-2); experiment: Tissue culture antiviral testing, RV-2 (cytopathic effect, HeLa cells); format: cell-based; conditions: for EC50: Enterovirus, HeLa cells, NA = not active at the standard test conditions, read-out: Lowest concentration of the compound necessary to cause a 50 percent reduction in cytopathic effect
[3] = system: Coxsackie A21 virus (Cox A21); experiment: Tissue culture antiviral testing, Cox A21 (cytopathic effect, HeLa cells); format: cell-based; conditions: for EC50: HeLa cells, NA = not active at the standard test conditions, read-out: Lowest concentration of the compound necessary to cause a 50 percent reduction in cytopathic effect
[4] = system: rhinovirus type 5 (RV-5); experiment: Tissue culture antiviral testing, RV-5 (cytopathic effect, HeLa cells); format: cell-based; conditions: for EC50: Enterovirus, HeLa cells, read-out: Lowest concentration of the compound necessary to cause a 50 percent reduction in cytopathic effect
[5] = system: rhinovirus type 8 (RV-8); experiment: Tissue culture antiviral testing, RV-8 (cytopathic effect, HeLa cells); format: cell-based; conditions: for EC50: Enterovirus, HeLa cells, read-out: Lowest concentration of the compound necessary to cause a 50 percent reduction in cytopathic effect
[6] = system: rhinovirus type 64 (RV-64); experiment: Tissue culture antiviral testing, RV-64 (cytopathic effect, HeLa cells); format: cell-based; conditions: for EC50: Enterovirus, HeLa cells, NA = not active at the standard test conditions, read-out: Lowest concentration of the compound necessary to cause a 50 percent reduction in cytopathic effect
[7] = system: Coxsackie A21 virus; experiment: Continuous Oral Feeding test in mice challenged with Coxsackie A21; format: in vivo; conditions: for X^2 (Continuous Oral Feeding, chi-square of deaths): 0.06 % in diet, 240 h, 0.06 % strength
[8] = Cytotoxicity in tissue culture (HeLa monolayers); format: cell-based; conditions: human; HeLa cells; observed at 48 and 72 hours post-treatment; read-out: Cytotoxicity (concentration of the compound found to be toxic to the cell)
[9] = system: Cox A21; experiment: Single Oral Dose test in mice challenged with Cox A21; format: in vivo, Swiss male mice; conditions: po, 600 mg/kg, 3 h

Structure (SMILES)	MCC [8]	EC50 [1]	EC50 [2]	EC50 [3]	X^2 (Continuous Oral Feeding, chi-square of deaths) [7]	EC50 [4]	EC50 [5]	EC50 [6]	further results
N#Cc1cc(Oc2ccc(Cl)c(Cl)c2)ccc1[N+](=O)[O-] [5-(3,4-dichlorophenoxy)-2-nitrobenzonitrile, reference compound]									concentration required to produce a 50% reduction in cytopathic effect, compared with 2-(3,4-dichlorophenoxy)-5-nitrobenzonitrile ([1]; in words): higher concentrations; concentration required to produce a 50% reduction in cytopathic effect, compared with 2-(3,4-dichlorophenoxy)-5-nitrobenzonitrile ([2]; in words): higher concentrations; concentration required to produce a 50% reduction in cytopathic effect, compared with 2-(3,4-dichlorophenoxy)-5-nitrobenzonitrile ([3]; in words): higher concentrations; antiviral activity at the test concentrations employed ([4]; in words): not active; antiviral activity at the test concentrations employed ([5]; in words): not active; antiviral activity at the test concentrations employed ([6]; in words): not active; antiviral activity in the "Continuous Oral Feeding" test ([7]; in words, 95% confidence level): failed to exhibit antiviral activity
N#Cc1cc([N+](=O)[O-])ccc1Oc1ccc(Br)cc1 [Example 3, 2-(4-Bromophenoxy)-5-nitrobenzonitrile]	> 100 µg/mL	1.25 µg/mL (≈ 3.92 µM)	1.25 µg/mL (≈ 3.92 µM)	2.5 µg/mL (≈ 7.83 µM)	5.81				X^2 (Single Oral Dose, chi-square of deaths vs virus control) [9]: 2.139
N#Cc1cc([N+](=O)[O-])ccc1Oc1ccc(Oc2ccccc2)cc1 [Example 5, 2-(4-Phenoxyphenoxy)-5-nitrobenzonitrile]	> 100 µg/mL		50 µg/mL (≈ 150 µM)	< 6.25 µg/mL	0.26				X^2 (Single Oral Dose, chi-square of deaths vs virus control) [9]: 0.719
CSc1ccc(Oc2ccc([N+](=O)[O-])cc2C#N)cc1 [Example 6, 2-(4-(Methylthio)phenoxy)-5-nitrobenzonitrile]	100 µg/mL		≤ 6.25 µg/mL	< 6.25 µg/mL	6.91				X^2 (Single Oral Dose, chi-square of deaths vs virus control) [9]: 0.609
C[S+]([O-])c1ccc(Oc2ccc([N+](=O)[O-])cc2C#N)cc1 (centres unmarked) [Example 7, 2-(4-(Methylsulfinyl)phenoxy)-5-nitrobenzonitrile]	50 µg/mL		6.25 µg/mL (≈ 20.7 µM)	< 6.25 µg/mL	18.82				X^2 (Single Oral Dose, chi-square of deaths vs virus control) [9]: 18.94
CS(=O)(=O)c1ccc(Oc2ccc([N+](=O)[O-])cc2C#N)cc1 [Example 8, 2-(4-(Methylsulfonyl)phenoxy)-5-nitrobenzonitrile]	> 100 µg/mL		12.5 µg/mL (≈ 39.3 µM)	< 6.25 µg/mL	10.45				X^2 (Single Oral Dose, chi-square of deaths vs virus control) [9]: 0.095
CN(C)S(=O)(=O)c1ccc(Oc2ccc([N+](=O)[O-])cc2C#N)cc1 [Example 9, N,N-Dimethyl-4-(2-cyano-4-nitrophenoxy)benzenesulfonamide]	> 100 µg/mL			< 6.25 µg/mL	9.03				
CCN(CC)S(=O)(=O)c1ccc(Oc2ccc([N+](=O)[O-])cc2C#N)cc1 [Example 10, N,N-Diethyl-4-(2-cyano-4-nitrophenoxy)benzenesulfonamide]	> 100 µg/mL	~50 µg/mL (≈ 133 µM)		< 6.25 µg/mL	2.84				
N#Cc1cc([N+](=O)[O-])ccc1Oc1ccc(C(=O)c2ccccc2)cc1 [Example 11, 2-(4-Benzoylphenoxy)-5-nitrobenzonitrile]	> 100 µg/mL		~100 µg/mL (≈ 290 µM)	12.5 µg/mL (≈ 36.3 µM)					X^2 (Single Oral Dose, chi-square of deaths vs virus control) [9]: 0.64
N#Cc1cc([N+](=O)[O-])ccc1Sc1ccc(Cl)cc1 [Example 12, 2-((4-Chlorophenyl)thio)-5-nitrobenzonitrile]	25 µg/mL	~3.12 µg/mL (≈ 10.7 µM)	≤ 1.6 µg/mL	1.6 µg/mL (≈ 5.5 µM)	0.215				X^2 (Single Oral Dose, chi-square of deaths vs virus control) [9]: 4.805
COc1cccc(Oc2ccc([N+](=O)[O-])cc2C#N)c1 [Example 13, 2-(3-Methoxyphenoxy)-5-nitrobenzonitrile]	> 50 µg/mL	6.25 µg/mL (≈ 23.1 µM)	≤ 3.12 µg/mL	< 3.12 µg/mL		6.25 µg/mL (≈ 23.1 µM)	3.12 µg/mL (≈ 11.6 µM)	12.5 µg/mL (≈ 46.3 µM)	
N#Cc1cc([N+](=O)[O-])ccc1Oc1ccc(C(F)(F)F)cc1 [Example 14, 2-((4-Trifluoromethyl)phenoxy)-5-nitrobenzonitrile]	≥ 50 µg/mL	3.12 µg/mL (≈ 10.1 µM)	0.312 µg/mL (≈ 1.01 µM)	0.625 µg/mL (≈ 2.03 µM)		2.5 µg/mL (≈ 8.11 µM)	0.312 µg/mL (≈ 1.01 µM)	0.625 µg/mL (≈ 2.03 µM)	
CC(=O)c1ccc(Oc2ccc([N+](=O)[O-])cc2C#N)cc1 [Example 15, 2-(4-Acetylphenoxy)-5-nitrobenzonitrile]	> 50 µg/mL	6.25 µg/mL (≈ 22.1 µM)	3.12 µg/mL (≈ 11.1 µM)	< 3.12 µg/mL		6.25 µg/mL (≈ 22.1 µM)	3.12 µg/mL (≈ 11.1 µM)	6.25 µg/mL (≈ 22.1 µM)	
Cc1cc(Cl)ccc1Oc1ccc([N+](=O)[O-])cc1C#N [Example 16, 2-(4-Chloro-2-methylphenoxy)-5-nitrobenzonitrile]	> 50 µg/mL	12.5 µg/mL (≈ 43.3 µM)	3.12 µg/mL (≈ 10.8 µM)	12.5 µg/mL (≈ 43.3 µM)		6.25 µg/mL (≈ 21.6 µM)	3.12 µg/mL (≈ 10.8 µM)		
N#Cc1cc([N+](=O)[O-])ccc1Oc1cc(Cl)c(Cl)c(Cl)c1 [Example 17, 2-(3,4,5-Trichlorophenoxy)-5-nitrobenzonitrile]	10 µg/mL	2.5 µg/mL (≈ 7.28 µM)	1.25 µg/mL (≈ 3.64 µM)	1.25 µg/mL (≈ 3.64 µM)					
N#Cc1cc([N+](=O)[O-])ccc1Oc1c(F)c(F)cc(F)c1F [Example 18, 2-(2,3,5,6-Tetrafluorophenoxy)-5-nitrobenzonitrile]	12.5 µg/mL	3.12 µg/mL (≈ 10 µM)	< 3.12 µg/mL	3.12 µg/mL (≈ 10 µM)		1.25 µg/mL (≈ 4 µM)	1.25 µg/mL (≈ 4 µM)	0.312 µg/mL (≈ 1 µM)	
N#Cc1cc([N+](=O)[O-])ccc1Oc1c(F)c(F)c(F)c(F)c1F [Example 19, 2-(2,3,4,5,6-Pentafluorophenoxy)-5-nitrobenzonitrile]	12.5 µg/mL	6.25 µg/mL (≈ 18.9 µM)	≤ 3.12 µg/mL	6.25 µg/mL (≈ 18.9 µM)		1.25 µg/mL (≈ 3.79 µM)	1.25 µg/mL (≈ 3.79 µM)	0.312 µg/mL (≈ 0.946 µM)	
N#Cc1cc([N+](=O)[O-])ccc1Sc1ccc(Cl)c(Cl)c1 [Example 20, 2-((3,4-Dichlorophenyl)thio)-5-nitrobenzonitrile]	10 µg/mL		2.5 µg/mL (≈ 7.69 µM)	~2.5 µg/mL (≈ 7.69 µM)					
N#Cc1cc([N+](=O)[O-])ccc1Oc1ccc(F)cc1 [Example 21, 2-(4-Fluorophenoxy)-5-nitrobenzonitrile]	10 µg/mL	0.625 µg/mL (≈ 2.42 µM)	< 0.625 µg/mL	0.625 µg/mL (≈ 2.42 µM)	10.513	1.25 µg/mL (≈ 4.84 µM)	0.625 µg/mL (≈ 2.42 µM)	0.625 µg/mL (≈ 2.42 µM)	
N#Cc1cc([N+](=O)[O-])ccc1Oc1cccc(Cl)c1Cl [Example 22, 2-(2,3-Dichlorophenoxy)-5-nitrobenzonitrile]	> 50 µg/mL	< 3.12 µg/mL	< 3.12 µg/mL	< 3.12 µg/mL				< 3.12 µg/mL	
N#Cc1cc([N+](=O)[O-])ccc1Oc1cc(Cl)ccc1Cl [Example 23, 2-(2,5-Dichlorophenoxy)-5-nitrobenzonitrile]	> 50 µg/mL	3.12 µg/mL (≈ 10.1 µM)	< 3.12 µg/mL	6.25 µg/mL (≈ 20.2 µM)		≤ 6.25 µg/mL	< 6.25 µg/mL	3.12 µg/mL (≈ 10.1 µM)	
N#Cc1cc([N+](=O)[O-])ccc1Oc1c(Cl)cccc1Cl [Example 24, 2-(2,6-Dichlorophenoxy)-5-nitrobenzonitrile]	> 50 µg/mL	3.12 µg/mL (≈ 10.1 µM)	≤ 3.12 µg/mL	12.5 µg/mL (≈ 40.4 µM)		3.12 µg/mL (≈ 10.1 µM)	≤ 3.12 µg/mL	3.12 µg/mL (≈ 10.1 µM)	
N#Cc1cc([N+](=O)[O-])ccc1Oc1cc(Cl)cc(Cl)c1 [Example 25, 2-(3,5-Dichlorophenoxy)-5-nitrobenzonitrile]	> 50 µg/mL	6.25 µg/mL (≈ 20.2 µM)	3.12 µg/mL (≈ 10.1 µM)			6.25 µg/mL (≈ 20.2 µM)	3.12 µg/mL (≈ 10.1 µM)	25 µg/mL (≈ 80.9 µM)	
N#Cc1cc([N+](=O)[O-])ccc1Oc1ccccc1C(F)(F)F [Example 26, 2-((2-Trifluoromethyl)phenoxy)-5-nitrobenzonitrile]	≥ 20 µg/mL		1.25 µg/mL (≈ 4.06 µM)	10 µg/mL (≈ 32.4 µM)					
N#Cc1cc([N+](=O)[O-])ccc1Oc1cccc(C(F)(F)F)c1 [Example 27, 2-((3-Trifluoromethyl)phenoxy)-5-nitrobenzonitrile]	12.5 µg/mL	2.5 µg/mL (≈ 8.11 µM)	0.625 µg/mL (≈ 2.03 µM)	1.25 µg/mL (≈ 4.06 µM)		0.625 µg/mL (≈ 2.03 µM)	1.25 µg/mL (≈ 4.06 µM)	0.625 µg/mL (≈ 2.03 µM)	
N#Cc1cc([N+](=O)[O-])ccc1Oc1cc(C(F)(F)F)cc(C(F)(F)F)c1 [Example 28, 2-(3,5-bis(Trifluoromethyl)phenoxy)-5-nitrobenzonitrile]	≥ 20 µg/mL		2.5 µg/mL (≈ 6.65 µM)	10 µg/mL (≈ 26.6 µM)					
N#Cc1cc([N+](=O)[O-])ccc1Oc1ccc(Cl)c(Cl)c1Cl [Example 29, 2-(2,3,4-Trichlorophenoxy)-5-nitrobenzonitrile]	> 20 µg/mL	~10 µg/mL (≈ 29.1 µM)	1.25 µg/mL (≈ 3.64 µM)	~5 µg/mL (≈ 14.6 µM)					
N#Cc1cc([N+](=O)[O-])ccc1Oc1cc(Cl)cc(Cl)c1Cl [Example 30, 2-(2,3,5-Trichlorophenoxy)-5-nitrobenzonitrile]	> 20 µg/mL	2.5 µg/mL (≈ 7.28 µM)	2.5 µg/mL (≈ 7.28 µM)						
N#Cc1cc([N+](=O)[O-])ccc1Oc1c(Cl)ccc(Cl)c1Cl [Example 31, 2-(2,3,6-Trichlorophenoxy)-5-nitrobenzonitrile]	> 20 µg/mL	2.5 µg/mL (≈ 7.28 µM)	1.25 µg/mL (≈ 3.64 µM)	5 µg/mL (≈ 14.6 µM)		3.12 µg/mL (≈ 9.1 µM)	< 3.12 µg/mL	3.12 µg/mL (≈ 9.1 µM)	
